Experimental data from patent publication US8415486B2, “IAP inhibitors” (TetraLogic Pharmaceuticals Corp., priority 2009, dated 2013).

Tests used:
XIAP BIR-3 = molecular target: T1, XIAP BIR-3 (Homo sapiens, UniProt P98170); assay: Fluorescence polarization binding to XIAP BIR-3 with labeled peptide AbuRPF-K(5-Fam)-NH2; conditions: 40 nM BIR3, 5 nM labeled peptide, reported as ranges
T1 construct: 40 nM of the respective IAP BIR3
Protocol: (§1) The binding affinities of the compounds are reported as a KD value (μM). Briefly, various concentrations of test peptides were mixed with 5 nM of the fluorescently labeled peptide (i.e., a mutated N-terminal Smac peptide—AbuRPF-K(5-Fam)-NH2) and 40 nM of the respective IAP BIR3 for 15 min at RT in […] of 0.1M Potassium Phosphate buffer, pH 7.5 containing 100 mg/ml bovine g-globulin. Following incubation, the polarization values (mP) were measured on a Victor2V (available from PerkinElmer Life Sciences) using a 485 nm excitation filter and a 520 nm emission filter. The reported binding affinities (KD values) are supplied as ranges (A=<0.1 μM, B=0.1 μM to 1 μM, C=>1 μM to 10 μM, D=>10 μM).

cIAP-1 BIR-3 = molecular target: T2, cIAP-1 BIR-3 (Homo sapiens, UniProt Q13490); assay: Fluorescence polarization binding to cIAP-1 BIR-3 with labeled peptide AbuRPF-K(5-Fam)-NH2; conditions: 40 nM BIR3, 5 nM labeled peptide, reported as ranges, read-out: KD (c-IAP-1 BIR3)
T2 construct: 40 nM of the respective IAP BIR3
Protocol: as §1

[1] = system: ovarian cancer cell line, SK-OV-3; assay: SK-OV-3 cell growth inhibition (MTT, 72 hrs); assay type: cell-based; conditions: Homo sapiens, concentration giving 50% cell survival, reported as ranges
Protocol: Compounds of the invention also were tested for their ability to inhibit the growth of an ovarian cancer cell line, SK-OV-3. A known assay previously used for measuring cell growth (as described in Hansen, M. B., Nielsen, S. E., and Berg, K. (1989) J. Immunol. Methods 119, 203-210 and incorporated herein by reference in its entirety) was used. Briefly, SK-OV-3 cells are seeded in 96-well plates in McCoy's medium containing 10% fetal bovine serum albumin (5,000 per well) and incubated overnight at 37° C. The next day, test compounds are added at various concentrations (0.003-10 μM) and the plates are incubated at 37° C. for an additional 72 hrs. This incubation time was considered to be optimal for measuring inhibitory effects of the different compounds tested. 50 microliters of 5 mg/mL MTT reagent is added to each well and the plates are incubated at 37° C. for another three (3) hours. At the end of the three (3) hour incubation period, 50 microliters of DMSO is added to each well to dissolve cells and the optical density (OD) of the wells is measured with a microplate reader (Victor^2 1420, Wallac, Finland) at 535 nm. Cell survival (CS) was calculated using the following equation: CS=(OD treated well/mean OD control wells)×100%.
The CC50 (reported in the following tables), is defined as the drug concentration that results in 50% cell survival (CS), and is derived by calculating the point where the dose-response curve crosses the 50% CS point using GraphPad Prism. The reported CC50 values are supplied as ranges (A=<0.1 μM, B=0.1 μM to 1 μM, C=>1 μM to 10 μM, D=>10 μM).

T2 sequence (Q13490 253-363 limits assumed): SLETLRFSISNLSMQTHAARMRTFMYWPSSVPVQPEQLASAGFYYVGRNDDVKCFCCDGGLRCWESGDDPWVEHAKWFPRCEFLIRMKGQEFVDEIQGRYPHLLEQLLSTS
T1 sequence (P98170 241-356 limits assumed): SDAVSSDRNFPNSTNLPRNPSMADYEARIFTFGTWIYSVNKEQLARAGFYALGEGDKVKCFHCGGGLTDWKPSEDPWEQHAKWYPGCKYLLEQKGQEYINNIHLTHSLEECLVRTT

SMILES	Kd (XIAP BIR-3) [nM]	Kd (cIAP-1 BIR-3) [nM]	CC50 [1] [nM]
CN[C@@H](C)C(=O)N[C@H](C(=O)N1CC[C@@H]2[C@H]1[C@@H](Oc1ccc(F)c(F)c1)CN2c1ncccn1)C(C)(C)C [Example 18, N-{1-[6-(3,4-Difluoro-phenoxy)-4-pyrimidin-2-yl-hexahydro-pyrrolo[3,2-b]pyrrole-1-carbonyl]-2,2-dimethyl-propyl}-2-methylamino-propionamide]	< 100	< 100	< 100
CCN1C[C@H](Oc2ccc(F)c(F)c2)[C@@H]2[C@H]1CCN2C(=O)[C@@H](NC(=O)[C@H](C)NC)C(C)(C)C [Example 16, N-{1-[6-(3,4-Difluoro-phenoxy)-4-ethyl-hexahydro-pyrrolo[3,2-b]pyrrole-1-carbonyl]-2,2-dimethyl-propyl}-2-methylamino-propionamide]	< 100	< 100	100 to 1000
CN[C@@H](C)C(=O)N[C@H](C(=O)N1CC[C@@H]2[C@H]1[C@@H](Oc1ccc(F)c(F)c1)CN2C(=O)CC(C)C)C(C)(C)C [Example 22, N-{1-[6-(3,4-Difluoro-phenoxy)-4-(3-methyl-butyryl)-hexahydro-pyrrolo[3,2-b]pyrrole-1-carbonyl]-2,2-dimethyl-propyl}-2-methylamino-propionamide]	< 100	< 100	< 100
CNC(=O)N1C[C@H](Oc2ccc(F)cc2)[C@@H]2[C@H]1CCN2C(=O)[C@@H](NC(=O)[C@H](C)NC)C(C)(C)C [Example 27, 4-[3,3-Dimethyl-2-(2-methylamino-propionylamino)-butyryl]-3-(4-fluoro-phenoxy)-hexahydro-pyrrolo[3,2-b]pyrrole-1-carboxylic acid methylamide]	< 100	< 100	< 100
CN[C@@H](C)C(=O)N[C@H](C(=O)N1CC[C@@H]2[C@H]1[C@@H](OC(=O)NC(C)(C)C)CN2C(=O)NC(C)C)C(C)(C)C [Example 55, tert-Butyl-carbamic acid 4-[3,3-dimethyl-2-(2-methylamino-propionylamino)-butyryl]-1-isopropylcarbamoyl-octahydro-pyrrolo[3,2-b]pyrrol-3-yl ester]	1000 to 10000	< 100	100 to 1000
CN[C@@H](C)C(=O)N[C@H](C(=O)N1CC[C@@H]2[C@H]1[C@@H](Oc1ccc(F)c(F)c1)CN2S(C)(=O)=O)[C@@H](C)OC [Example 14, N-{1-[6-(3,4-Difluoro-phenoxy)-4-methanesulfonyl-hexahydro-pyrrolo[3,2-b]pyrrole-1-carbonyl]-2-methoxy-propyl}-2-methylamino-propionamide]	< 100	< 100	< 100
CNC(=O)N1C[C@H](COc2ccc(F)c(F)c2)[C@@H]2[C@H]1CCN2C(=O)[C@@H](NC(=O)[C@H](C)NC)C(C)(C)C [Example 62, 3-(3,4-Difluoro-phenoxymethyl)-4-[3,3-dimethyl-2-(2-methylamino-propionylamino)-butyryl]-hexahydro-pyrrolo[3,2-b]pyrrole-1-carboxylic acid methylamide]	< 100	< 100	< 100
CN[C@@H](C)C(=O)N[C@H](C(=O)N1CC[C@H]2NC[C@H](Oc3ccc4c(c3)CCCC4)[C@H]21)C1CCCCC1 [Example 6, N-{1-Cyclohexyl-2-oxo-2-[6-(5,6,7,8-tetrahydro-naphthalen-2-yloxy)-hexahydro-pyrrolo[3,2-b]pyrrol-1-yl]-ethyl}-2-methylamino-propionamide]	< 100	< 100	< 100
CN[C@@H](C)C(=O)N[C@H](C(=O)N1CC[C@@H]2[C@H]1[C@@H](OC(=O)NC1CCCC1)CN2C(=O)NC(C)C)C(C)(C)C [Example 56, Cyclopentyl-carbamic acid 4-[3,3-dimethyl-2-(2-methylamino-propionylamino)-butyryl]-1-isopropylcarbamoyl-octahydro-pyrrolo[3,2-b]pyrrol-3-yl ester]	100 to 1000	< 100	100 to 1000
CN[C@@H](C)C(=O)N[C@H](C(=O)N1CC[C@@H]2[C@H]1[C@@H](COc1ccc(F)c(F)c1)CN2C(=O)C1CC1)C(C)(C)C [Example 69, N-{1-[4-Cyclopropanecarbonyl-6-(3,4-difluoro-phenoxymethyl)-hexahydro-pyrrolo[3,2-b]pyrrole-1-carbonyl]-2,2-dimethyl-propyl}-2-methylamino propionamide]	100 to 1000	< 100	< 100
CN[C@@H](C)C(=O)N[C@H](C(=O)N1CC[C@@H]2[C@H]1[C@@H](COc1ccc(F)c(F)c1)CN2S(C)(=O)=O)C(C)(C)C [Example 63, N-{1-[6-(3,4-Difluoro-phenoxymethyl)-4-methanesulfonyl-hexahydro-pyrrolo[3,2-b]pyrrole-1-carbonyl}-2,2-dimethyl-propyl]-2-methylamino propionamide]	< 100	< 100	< 100
CN[C@@H](C)C(=O)N[C@H](C(=O)N1CC[C@@H]2[C@H]1[C@@H](OC(=O)N1CCCCC1)CN2C(=O)NC(C)C)C(C)(C)C [Example 59, Piperidine-1-carboxylic acid 4-[3,3-dimethyl-2-(2-methylamino-propionylamino)-butyryl]-1-isopropylcarbamoyl-octahydro-pyrrolo[3,2-b]pyrrol-3-yl ester]	1000 to 10000	< 100	1000 to 10000

The next lines start with results.

Kd (XIAP BIR-3) [nM]	Kd (cIAP-1 BIR-3) [nM]	SMILES	CC50 [1] [nM]
< 100	< 100	CN[C@@H](C)C(=O)N[C@H](C(=O)N1CC[C@@H]2[C@H]1[C@@H](Oc1ccc(F)cc1)CN2S(C)(=O)=O)C1CCCCC1 [Example 10, N-{1-Cyclohexyl-2-[6-(4-fluoro-phenoxy)-4-methanesulfonyl-hexahydro-pyrrolo[3,2-b]pyrrol-1-yl]-2-oxo-ethyl}-2-methylamino-propionamide]	< 100
100 to 1000	< 100	CNC(C)C(=O)NC(C(=O)N1CCC2C1C(OC(=O)NCc1ccccc1)CN2C(=O)NC(C)C)C(C)(C)C (stereo not drawn) [Example 46, Benzyl-carbamic acid 4-[3,3-dimethyl-2-(2-methylamino-propionylamino)-butyryl]-1-isopropylcarbamoyl-octahydro-pyrrolo[3,2-b]pyrrol-3-yl ester]	< 100
100 to 1000	< 100	CN[C@@H](CF)C(=O)N[C@H](C(=O)N1CC[C@H]2NC[C@H](OCc3ccccc3)[C@H]21)C1CCCCC1 [Example 33, N-[2-(6-Benzyloxy-hexahydro-pyrrolo[3,2-b]pyrrol-1-yl)-1-cyclohexyl-2-oxo-ethyl]-3-fluoro-2-methylamino-propionamide]	> 10000
< 100	< 100	CN[C@@H](CF)C(=O)N[C@H](C(=O)N1CC[C@@H]2[C@H]1[C@@H](OCc1ccccc1)CN2C(=O)OC(C)(C)C)C1CCCCC1 [Example 32, 3-Benzyloxy-4-[2-cyclohexyl-2-(3-fluoro-2-methylamino-propionylamino)-acetyl]-hexahydro-pyrrolo[3,2-b]pyrrole-1-carboxylic acid tert-butyl ester]	100 to 1000
< 100	< 100	CN[C@@H](C)C(=O)N[C@H](C(=O)N1CC[C@@H]2[C@H]1[C@@H](OCc1ccc(F)cc1)CN2C(=O)OC(C)(C)C)C(C)(C)C [Example 34, 4-[3,3-Dimethyl-2-(2-methylamino-propionylamino)-butyryl]-3-(4-fluoro-benzyloxy)-hexahydro-pyrrolo[3,2-b]pyrrole-1-carboxylic acid tert-butyl ester]	< 100
< 100	< 100	CN[C@@H](C)C(=O)N[C@H](C(=O)N1CC[C@H]2NC[C@H](Oc3ccc4ccccc4c3)[C@H]21)C1CCCCC1 [Example 7, N-{1-Cyclohexyl-2-[6-(naphthalen-2-yloxy)-hexahydro-pyrrolo[3,2-b]pyrrol-1-yl]-2-oxo-ethyl}-2-methylamino-propionamide]	< 100
